Several values for one entry are separate records, joined by “and”; a condition that tells them apart may be missing. Equal values may be shown once. Read-outs that look alike come from different tables or passages of the source.
Tests used:
[1] = tested on: HeLa MCTS; assay: (Photo-)cytotoxicity on 3D MCTS (ATP concentration); assay type: cell-based, human; settings: for IC50: 1-3 as chloride salts; for PI (1P irradiation): dark vs 500 nm; for PI (2P irradiation): dark vs 800 nm
Experimental: The cytotoxicity of the compounds in 3D MCTS was assessed by measurement of the ATP concentration. MCTS were treated with increasing concentrations of the compound (2% DMSO, v%) by replacing 50% of the media with drug supplemented media and incubation for 12 h. After this time, the MCTS were divided in three identical groups. The first group was strictly kept in the dark. The second group was exposed to a 1-Photon irradiation (500 nm, 16.7 min, 10.0 mW cm^−2, and 10 J cm^−2) using a LED light source and the third group was exposed to a 2-Photon irradiation (800 nm, 10 J cm^−2 with a section interval of 5 μm) using a LSM 880 (Carl Zeiss, Germany) laser scanning confocal microscope equipped with a Coherent Chameleon 2-Photon laser. After the irradiation, all groups were incubated additional 48 h. The ATP concertation was measured using a CellTiter-Glo 3D Cell Viability kit (Promega) by measuring the generated chemiluminescence with an infinite M200 PRO (Tecan) plate reader.

[2] = tested on: noncancerous retinal pigment epithelium (RPE-1) cells
[3] = Distribution coefficient (shake-flask, octanol/PBS); assay type: physicochemical; settings: ICP-MS
Experimental: Using the “shake-flask” method, the distribution coefficient between the PBS and octanol phase of the sample was determined. The PBS and octanol phases were previously saturated in each other. The sample was dissolved in the phase, which is dissolving best the compound. This solution was added to an equal volume of the other phase and mixed at 190 rpm overnight with a sample mixer. Following this, the solutions were equilibrated for 4 h. The phases were carefully separated from each other. The amount of the sample in each phase was determined by ICP-MS. The evaluation was repeated three times and the ratio between the organic and aqueous phase determined.

[4] = Singlet oxygen quantum yield, indirect evaluation (1O2 scavenger absorbance); assay type: physicochemical
Experimental: Indirect evaluation: measurement in acetonitrile: the sample was prepared in an air-saturated acetonitrile solution with an absorption of 0.2 at the irradiation wavelength, N,N-dimethyl-4-nitrosoaniline aniline (RNO, 24 µM) and imidazole (12 mM). Measurement in PBS buffer: the sample was prepared in an air-saturated PBS solution containing the complex with an absorption of 0.2 at the irradiation wavelength, N,N-dimethyl-4-nitrosoaniline aniline (RNO, 20 µM) and histidine (10 mM). The samples were irradiated for various time points with an Atlas Photonics LUMOS BIO irradiator. The absorption of the samples was constantly monitored with a SpectraMax M2 Microplate Reader (Molecular Devices). The difference in absorption (A0 − A) at 420 nm for the measurement in acetonitrile or at 440 nm for the measurement in PBS was determined. The difference in absorption was then plotted against the irradiation times and the slope of the linear regression calculated. The absorption of the sample was corrected with an absorption correction factor. The singlet oxygen quantum yields were calculated using the same formulas as used for the direct evaluation.

[5] = In vivo time-dependent biodistribution (ICP-MS); set-up: species or system mouse; settings: chloride salt, SW620/AD300 tumor-bearing nude mice
Experimental: Six weeks old nu/nu female mice were purchased from Charles River. For the tumor xenograft, 6 × 10^6 SW620/AD300 cells were subcutaneously (s.c.) injected with a 150 μL Matrigel and saline (1:1, v/v) suspension into the mice. After a week, the tumor volumes of the mice reached ~80 mm^3. All experiments were conducted in compliance with the ethical regulations for animal testing and received approval of the experimental animal managing committee of Sun Yat Sen University.
Three nude mice were tail-intravenous (i.v.) injected with 2 mg kg^−1 of the sample. One hour later, the mice were sacrificed and the major organs (including the heart, liver, spleen, lung, kidney, brain, intestine, and blood) were separated, weighted and ground. The grinded organ as well as the blood were digested using a 60% HNO3 solution for 3 days, and following this, diluted to a 2% HNO3 solution in water. The Ru content was determined with an ICP-MS apparatus and the results compared with the Ru references.
Six SW620/AD300 nude tumor-bearing nude mice were separated into three groups, and i.v. injected with 2 mg kg^−1 of the sample. 30 min, 1 h, 2 h later, the mice were euthanized and the distribution of the sample determined using the previous described method.

[6] = In vivo tolerability: body weight, behaviour, H&E histology; set-up: species or system mouse; settings: 2 mg kg^−1 i.v.
Experimental: The mice were anesthetized by injection of a 4% chloral hydrate aqueous solution (0.2 mL, 20 g^−1) before the treatment. The tumor volume and body weight were measured and recorded every 2 days. Tumor volume was calculated by the following formula:6 Volume=Length×Width^2/2.
The tumor and all major organs (including the heart, liver, spleen, lung, kidney, brain, intestine, and blood) were collected and a slice of each one was fixated with 4% paraformaldehyde. The obtained slices were stained with hematoxylin and eosin. The histological images were taken with a Carl Zeiss Axio Imager Z2 microscope.

[7] = 1P 500 nm, read-out: IC50 1P irradiation (500 nm, 10 J cm-2)
[8] = 2P 800 nm, section interval 5 μm, read-out: IC50 2P irradiation (800 nm, 10 J cm-2)

SMILES | IC50 [1, 7] | IC50 [1, 8] | PI (1P irradiation) [1] | PI (2P irradiation) [1] | IC50 ([1]; dark, read-out: IC50 dark) [µM] | IC50 [2] [µM] | logD (octanol/PBS) [3] | Singlet oxygen quantum yield, Indirect 450 nm CH3CN [4] [%] | Singlet oxygen quantum yield, Indirect 450 nm PBS [4] [%] | Singlet oxygen quantum yield, Indirect 540 nm CH3CN [4] [%] | Singlet oxygen quantum yield, Indirect 540 nm PBS [4] [%] | Singlet oxygen quantum yield in acetonitrile (range over methods and wavelengths) ([4]; acetonitrile, 450 and 540 nm, direct and indirect) | Singlet oxygen quantum yield in aqueous solution (range over wavelengths) ([4]; aqueous solution, 450 and 540 nm) | time until absorbed from the blood stream ([5]; 2 mg kg^−1 i.v. tail injection) [h] | organ accumulation (Ru content) ([5]; 2 mg kg^−1 i.v.) | histology of all other organs (H&E) ([6]; exposed to light) | histology of tumor tissue (H&E) ([6]; exposed to light) | behaviour of treated mice ([6]; nude mice) | body weight of treated mice ([6]; nude mice)
CN(C)c1ccc(/C=C/c2ccnc(-c3cc(/C=C/c4ccc(N(C)C)cc4)ccn3)c2)cc1.F[P-](F)(F)(F)(F)F.F[P-](F)(F)(F)(F)F.[Ru+2].c1ccc(-c2ccccn2)nc1.c1ccc(-c2ccccn2)nc1 [compound 6, [Ru(2,2′-bipyridine)2((E,E′)-4,4′-Bis[p-(N,N-dimethylamino)styryl]-2,2′-bipyridine)][PF6]2] | 33.8 ± 3.4 µM | 26.5 ± 2.9 µM | > 8.9 | > 11.3 | > 300 | 7.3 | +0.7 ± 0.2 | 53 | 2 | 38 | 2 |  |  |  |  |  |  |  | 
COc1ccc(/C=C/c2ccnc(-c3cc(/C=C/c4ccc(OC)cc4)ccn3)c2)cc1.F[P-](F)(F)(F)(F)F.F[P-](F)(F)(F)(F)F.[Ru+2].c1ccc(-c2ccccn2)nc1.c1ccc(-c2ccccn2)nc1 [compound 7, [Ru(2,2′-bipyridine)2((E,E′)-4,4′-Bis[p-methoxystyryl]-2,2′-bipyridine)][PF6]2] | > 6.8 µM and 6.8 µM | > 1.4 µM and 1.4 µM | > 44 and > 44.1 | > 250 and > 214.3 | > 300 | 3.1 | +0.5 ± 0.2 | 77 | 11 | 68 | 10 | 68–77% | 10–11% | ≤ 1 | high accumulation in the intestine and some accumulation in the tumor | did not show any significant effect | pathological alterations caused by the PDT treatment | behaved normally, without signs of pain, stress or discomfort | did not lose or gain weight
C(=C\c1ccnc(-c2cc(/C=C/c3ccccc3)ccn2)c1)/c1ccccc1.C(=C\c1ccnc(-c2cc(/C=C/c3ccccc3)ccn2)c1)/c1ccccc1.C(=C\c1ccnc(-c2cc(/C=C/c3ccccc3)ccn2)c1)/c1ccccc1.F[P-](F)(F)(F)(F)F.F[P-](F)(F)(F)(F)F.[Ru+2] [compound 1] |  |  |  |  |  | 30.9 | +2.6 ± 0.4 | 66 | 5 | 61 | 3 |  |  |  |  |  |  |  | 
COc1ccc(/C=C/c2ccnc(-c3cc(/C=C/c4ccc(OC)cc4)ccn3)c2)cc1.COc1ccc(/C=C/c2ccnc(-c3cc(/C=C/c4ccc(OC)cc4)ccn3)c2)cc1.F[P-](F)(F)(F)(F)F.F[P-](F)(F)(F)(F)F.[Ru+2].c1ccc(-c2ccccn2)nc1 [compound 5, [Ru(2,2′-bipyridine)((E,E′)-4,4′-Bis[p-methoxystyryl]-2,2′-bipyridine)2][PF6]2] | 19.3 ± 2.7 µM | 13.4 ± 3.9 µM | > 5.2 | > 7.5 |  | 10.2 | +1.4 ± 0.2 | 51 | 8 | 46 | 6 |  |  |  |  |  |  |  | 
CN(C)c1ccc(/C=C/c2ccnc(-c3cc(/C=C/c4ccc(N(C)C)cc4)ccn3)c2)cc1.CN(C)c1ccc(/C=C/c2ccnc(-c3cc(/C=C/c4ccc(N(C)C)cc4)ccn3)c2)cc1.F[P-](F)(F)(F)(F)F.F[P-](F)(F)(F)(F)F.[Ru+2].c1ccc(-c2ccccn2)nc1 [compound 4, [Ru(2,2′-bipyridine)((E,E′)-4,4′-Bis[p-(N,N-dimethylamino)styryl]-2,2′-bipyridine)2][PF6]2] | 78.3 ± 5.1 µM | 63 ± 4.2 µM | > 1.3 | > 1.6 |  | 10.9 | +1.7 ± 0.3 | 40 | 2 | 37 | 3 |  |  |  |  |  |  |  | 
COc1ccc(/C=C/c2ccnc(-c3cc(/C=C/c4ccc(OC)cc4)ccn3)c2)cc1.COc1ccc(/C=C/c2ccnc(-c3cc(/C=C/c4ccc(OC)cc4)ccn3)c2)cc1.COc1ccc(/C=C/c2ccnc(-c3cc(/C=C/c4ccc(OC)cc4)ccn3)c2)cc1.F[P-](F)(F)(F)(F)F.F[P-](F)(F)(F)(F)F.[Ru+2] [compound 3, [Ru((E,E′)-4,4′-Bis[p-methoxystyryl]-2,2′-bipyridine)3][PF6]2] |  | 87.3 ± 6.8 µM |  | > 1.1 |  | 53.6 | +2.3 ± 0.3 | 48 | 6 | 49 | 5 |  |  |  |  |  |  |  | 

Reference: article PMC7320011, “Rationally designed ruthenium complexes for 1- and 2-photon photodynamic therapy” (Nature Communications, 2020)
